A short description of assay [1]: Test 4: Inhibition of Cellular Release of Amyloid Peptide 1-40. Format: cell-based, Chinese hamster. Particulars: Cricetulus griseus; CHO cells with human APP, 24 hours with compound; read-out: Test 4 Amyloid-β1-40 release IC50. On the procedure: The cells are plated at a density of 8000 cells/well into 96-well microtiter plates and cultivated for 24 hours in DMEM cell culture medium containing 10% FCS. The test compound is added to the cells at various concentrations, and the cells are cultivated for 24 hours in the presence of the test compound. […] The potency of the compound is calculated from the percentage of inhibition of amyloid peptide release as a function of the test compound concentration.

Assay [2] deals with Human BACE-2 (Homo sapiens (Human), UniProt Q9Y5Z0). Description: Test 2: Inhibition of Human BACE-2. Format: biochemical. Particulars: recombinant BACE-2, pH 4.5, 1 hour preincubation. On the procedure: Test 2: Inhibition of Human BACE-2
(§1) Recombinant BACE-2 (extracellular domain, expressed in baculovirus and purified using standard methods) at 0.1 to 1 nM concentrations is incubated with the test compound at various concentrations for 1 hour at room temperature in 100 mM acetate buffer, pH 4.5, containing 0.1% CHAPS. Activity was measured using a final concentration of 3 μM of the fluorescence-quenched substrate Q-C(HSO3)-Ile-Asp-Leu-Ala-Val-Leu-Asp-HN—CH2—CH2-Mca, where Q=2-nitro-5-amino benzoic acid and Mca=7-methoxy-4-coumarinyl acetic acid. Catalytic turnover was monitored in a Spectramax Gemini fluorescence plate reader (Molecular Devices) in black 96-well microplates using excitation/emission wavelength of 325 nm and 400 nm, respectively. Fluorescence increase was followed for 15 min, in 1 minute's intervals. The fluorescence/time slopes were calculated from duplicate wells and from wells without inhibitor and the IC50 values were calculated using a logistic 4-parameter model.

Assay [3] deals with Human BACE-1 (Homo sapiens (Human), UniProt P56817). Description: Test 1: Inhibition of Human BACE-1. Format: biochemical. Particulars: recombinant BACE-1, pH 4.5, 1 hour preincubation. On the procedure: Test 1: Inhibition of Human BACE-1
as §1, with “BACE-1” for “BACE-2”

Human BACE-1, sequence (P56817 46-457): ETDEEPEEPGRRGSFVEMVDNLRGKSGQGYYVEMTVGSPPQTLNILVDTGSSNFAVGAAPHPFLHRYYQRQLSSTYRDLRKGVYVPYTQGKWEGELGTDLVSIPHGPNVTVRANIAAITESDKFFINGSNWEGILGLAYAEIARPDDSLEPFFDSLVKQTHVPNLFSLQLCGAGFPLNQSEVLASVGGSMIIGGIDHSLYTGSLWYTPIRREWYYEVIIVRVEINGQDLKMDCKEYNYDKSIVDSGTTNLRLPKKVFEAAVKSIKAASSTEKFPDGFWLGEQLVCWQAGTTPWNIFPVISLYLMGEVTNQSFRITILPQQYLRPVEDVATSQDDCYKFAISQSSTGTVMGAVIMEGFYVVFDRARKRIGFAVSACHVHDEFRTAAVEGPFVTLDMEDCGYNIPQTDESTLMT
Human BACE-2, sequence (Q9Y5Z0 63-473): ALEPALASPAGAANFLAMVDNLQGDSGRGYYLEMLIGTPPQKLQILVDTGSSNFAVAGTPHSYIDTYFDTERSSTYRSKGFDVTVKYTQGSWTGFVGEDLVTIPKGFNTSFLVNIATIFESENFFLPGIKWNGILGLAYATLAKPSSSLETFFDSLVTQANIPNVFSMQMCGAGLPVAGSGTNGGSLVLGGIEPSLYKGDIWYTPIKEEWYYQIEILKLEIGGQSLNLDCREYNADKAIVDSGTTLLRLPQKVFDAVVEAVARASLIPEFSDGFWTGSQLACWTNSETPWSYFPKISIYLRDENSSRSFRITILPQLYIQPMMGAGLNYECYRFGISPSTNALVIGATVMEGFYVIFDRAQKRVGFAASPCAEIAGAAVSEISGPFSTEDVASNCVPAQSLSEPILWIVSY

`C[C@]1(c2nc(NC(=O)c3ncc(OCCF)nc3N)ccc2F)N=C(N)OCC1(F)F` [Example 25, 3-Amino-5-(2-fluoro-ethoxy)-pyrazine-2-carboxylic acid [6-((R)-2-amino-5,5-difluoro-4-methyl-5,6-dihydro-4H-[1,3]oxazin-4-yl)-5-fluoro-pyridin-2-yl]-amide]: the IC50 in assay [1] was 480 nM; in assay [2], greater than 10000 nM; in assay [3], 570 nM.
On the same counts, the results for `C[C@]1(c2nc(NC(=O)c3ncc(OCC(F)(F)F)nc3N)ccc2F)N=C(N)OCC1(F)F` [Example 10, 3-Amino-5-(2,2,2-trifluoro-ethoxy)pyrazine-2-carboxylic acid [6-((R)-2-amino-5,5-difluoro-4-methyl-5,6-dihydro-4H-[1,3]oxazin-4-yl)-5-fluoro-pyridin-2-yl]-amide] are 600 nM, 3800 nM and 590 nM.
For `C[C@]1(c2nc(NC(=O)c3ncc(OCF)cc3Cl)ccc2F)N=C(N)OCC1(F)F` [Example 26, 3-Chloro-5-fluoromethoxy-pyridine-2-carboxylic acid [6-((R)-2-amino-5,5-difluoro-4-methyl-5,6-dihydro-4H-[1,3]oxazin-4-yl)-5-fluoro-pyridin-2-yl]-amide], in that order: 57 nM, 27 nM and 110 nM.
As for `COCC[C@]1(c2nc(NC(=O)c3ncc(C(F)(F)F)cc3Cl)ccc2F)N=C(N)OCC1(F)F` [Example 6, 3-Chloro-5-trifluoromethyl-pyridine-2-carboxylic acid {6-[(R)-2-amino-5,5-difluoro-4-(2-methoxy-ethyl)-5,6-dihydro-4H-[1,3]oxazin-4-yl]-5-fluoro-pyridin-2-yl}-amide], the IC50 in assay [1] is 380 nM; in assay [2], 6600 nM; in assay [3], 650 nM.
On to `CC(F)(F)c1nc(N)c(C(=O)Nc2ccc(F)c([C@@]3(C)N=C(N)OCC3(F)F)n2)nc1Cl` [Example 34, 3-Amino-6-chloro-5-(1,1-difluoro-ethyl)-pyrazine-2-carboxylic acid [6-((R)-2-amino-5,5-difluoro-4-methyl-5,6-dihydro-4H-[1,3]oxazin-4-yl)-5-fluoro-pyridin-2-yl]-amide], for which the IC50 in assay [1] was 6500 nM; in assay [2] it was greater than 10000 nM; in assay [3] it was greater than 10000 nM.
For `C[C@]1(c2nc(NC(=O)c3ncc(OCF)nc3N)ccc2F)N=C(N)OCC1(F)F` [Example 15, 3-Amino-5-fluoromethoxy-pyrazine-2-carboxylic acid [6-((R)-2-amino-5,5-difluoro-4-methyl-5,6-dihydro-4H-[1,3]oxazin-4-yl)-5-fluoro-pyridin-2-yl]-amide], the values for the IC50 in assay [1], in assay [2] and in assay [3] were 30 nM, 730 nM and 110 nM, respectively.
With `[2H]C([2H])([2H])C([2H])([2H])Oc1cnc(C(=O)Nc2ccc(F)c([C@@]3(C)N=C(N)OCC3(F)F)n2)c(N)n1` [Example 28, 3-Amino-5-(penta-deutero-ethoxy)-pyrazine-2-carboxylic acid [6-((R)-2-amino-5,5-difluoro-4-methyl-5,6-dihydro-4H-[1,3]oxazin-4-yl)-5-fluoro-pyridin-2-yl]-amide], the figures for the IC50 in assay [1], in assay [2] and in assay [3] were 840 nM, 10000 nM and 1900 nM, respectively.
On the same counts, the results for `C[C@]1(c2nc(NC(=O)c3ncc(Cl)cc3Cl)ccc2F)N=C(N)OCC1(F)F` [Example 9, 3,5-Dichloro-pyridine-2-carboxylic acid [6-((R)-2-amino-5,5-difluoro-4-methyl-5,6-dihydro-4H-[1,3]oxazin-4-yl)-5-fluoro-pyridin-2-yl]-amide] are 12 nM, 4 nM and 18 nM.
On the same counts, the results for `C[C@]1(c2nc(NC(=O)c3ncc(OCC(F)F)cc3Cl)ccc2F)N=C(N)OCC1(F)F` [Example 24, 3-Chloro-5-(2,2-difluoro-ethoxy)-pyridine-2-carboxylic acid [6-((R)-2-amino-5,5-difluoro-4-methyl-5,6-dihydro-4H-[1,3]oxazin-4-yl)-5-fluoro-pyridin-2-yl]-amide] are 250 nM, 4500 nM and 240 nM.
On the same counts, the results for `CCOc1cnc(C(=O)Nc2ccc(F)c([C@@]3(C)N=C(N)OCC3(F)F)n2)c(Cl)c1` [Example 27, 3-Chloro-5-ethoxy-pyridine-2-carboxylic acid [6-((R)-2-amino-5,5-difluoro-4-methyl-5,6-dihydro-4H-[1,3]oxazin-4-yl)-5-fluoro-pyridin-2-yl]-amide] are 450 nM, 420 nM and 290 nM.
For the compound `C[C@]1(c2nc(NC(=O)c3ncc(C(F)F)cc3N)ccc2F)N=C(N)OCC1(F)F` [Example 33, 3-Amino-5-difluoromethyl-pyridine-2-carboxylic acid [6-((R)-2-amino-5,5-difluoro-4-methyl-5,6-dihydro-4H-[1,3]oxazin-4-yl)-5-fluoro-pyridin-2-yl]-amide], the IC50 in assay [1] stood at 66 nM; in assay [2], 260 nM; in assay [3] it was 140 nM.
For `C[C@]1(c2nc(NC(=O)c3ncc(OCCCl)nc3N)ccc2F)N=C(N)OCC1(F)F` [Example 23, 3-Amino-5-(2-chloro-ethoxy)-pyrazine-2-carboxylic acid [6-((R)-2-amino-5,5-difluoro-4-methyl-5,6-dihydro-4H-[1,3]oxazin-4-yl)-5-fluoro-pyridin-2-yl]-amide], in that order: 2900 nM, greater than 10000 nM and 8700 nM.

In general, IC50 refers to the point on the concentration scale where inhibition reaches its midpoint.

For the origin of these results see patent US9163011B2, “Oxazine derivatives and their use in the treatment of disease” (NOVARTIS AG, priority 2011, dated 2015).
